Like-named read-outs stand apart in the source and are kept apart here. A value given as a limit tells only on which side of the number the result lay.

The nature of series [1]: Hygroscopicity test: weight gain of solid sample in humidity chamber at RH=80%. Format: physicochemical. Conditions: for hygroscopicity (in words): RH=80% screening; for weight gain in hygroscopicity test: T=20±2° C., during 24 hrs. The source says: There are many methods of quantitative evaluation of hygroscopicity of solid products without measuring the hygroscopic point. The most widely used method is based on measuring the weight gain of a solid sample in a humidity chamber. […] This method was used for screening the hygroscopicity of several LDEE salts. It also provides a comparison of the hygroscopic properties of different solids by comparison of water absorption rates under the same conditions.

Series [2] in a line: pKa and delta pKa (pKa LDEE − pKa acid). Format: physicochemical. From the text: Preparation and selection of salts that have different physical properties are detailed in the literature. […]. PKa of LDEE free base is known to be 7.24 [8]. […]. This fact is illustrated in Example 1 below, in which the crystallization of LDEE palmitate was attempted. After dissolution of LDEE base and palmitic acid in absolute alcohol, the solution was cooled, and instead of forming a new salt, pure palmitic acid was crystallized out, and no solid crystalline salt was formed. […]

As to `CCOC(=O)[C@@H](N)Cc1ccc(O)c(O)c1.O=C(O)[C@@H](O)c1ccccc1` [Example 15, LDEE S(+)Mandelate], in series [1] (RH = 80%), the “Color stability at RH = 80%” value is over 24 h, the “Mean water absorption rate at RH = 80%” value stood at 0.092 mol/kg/h, the “Material appearance after 24 hrs at RH = 80%” value is listed as “Semi-solid melt” and the “Weight gain during 24 hrs at RH = 80%,%” value is reported as 4.0%. The “hygroscopicity (in words)” value in series [1] is given as “hygroscopic”. Moreover, the “weight gain in hygroscopicity test” value in series [1] (RH=80%) stood at 4.02%. Further, in series [2], the “delta pKa pKaLDEE − pKaacid (first value)” value amounted to 3.4.
For the molecule `CCOC(=O)[C@@H](N)Cc1ccc(O)c(O)c1.O=C(O)c1ccccc1` [Example 8, LDEE Benzoate], in series [1] (RH = 80%), the “Color stability at RH = 80%” value is 4.5 h, the “Mean water absorption rate at RH = 80%” value was 0.09 mol/kg/h, the “Material appearance after 24 hrs at RH = 80%” value is “Semi-solid melt” and the “Weight gain during 24 hrs at RH = 80%,%” value came out at 4.1%. For the same molecule, the “hygroscopicity (in words)” value in series [1] is “hygroscopic”. Also, the “weight gain in hygroscopicity test” value in series [1] (RH=80%) was found to be 4.1%. Further, in series [2], the “delta pKa pKaLDEE − pKaacid (first value)” value amounted to 3.03.
As to `CCOC(=O)[C@@H](N)Cc1ccc(O)c(O)c1.O=P(O)(O)O` [Example 11, LDEE Phosphate], in series [1] (RH = 80%), the “Color stability at RH = 80%” value came to 15 h, the “Mean water absorption rate at RH = 80%” value is 0.147 mol/kg/h, the “Material appearance after 24 hrs at RH = 80%” value is “Semi-solid melt” and the “Weight gain during 24 hrs at RH = 80%,%” value is given as 6.4%. Further, the “weight gain in hygroscopicity test” value in series [1] (RH=80%) was determined as 6.4%. For the same molecule, in series [2], the “delta pKa pKaLDEE − pKaacid (first value)” value is given as 5.09, the “delta pKa pKaLDEE − pKaacid (second value)” value amounted to 0.04 and the “delta pKa pKaLDEE − pKaacid (third value)” value is recorded as −4.6.
Turning to `CCOC(=O)[C@@H](N)Cc1ccc(O)c(O)c1.O=C(O)C(O)C(O)C(=O)O` [Example 5, LDEE Hydrogen L(+)Tartrate], in series [1] (RH = 80%), the “Color stability at RH = 80%” value turned out to be 19 h, the “Mean water absorption rate at RH = 80%” value turned out to be 0.23 mol/kg/h, the “Material appearance after 24 hrs at RH = 80%” value is recorded as “Syrup” and the “Weight gain during 24 hrs at RH = 80%,%” value turned out to be 10.1%. Moreover, in series [1], the “hygroscopicity (in words)” value is on record as “hygroscopic”. Also, the “weight gain in hygroscopicity test” value in series [1] (RH=80%) amounted to 10.1%. For the same molecule, in series [2], the “delta pKa pKaLDEE − pKaacid (first value)” value came to 4.26 and the “delta pKa pKaLDEE − pKaacid (second value)” value turned out to be 2.90.
Regarding LDEE Myristate [Example 27], in series [1] (RH = 80%), the “Color stability at RH = 80%” value is over 48 h, the “Mean water absorption rate at RH = 80%” value was 0.002 mol/kg/h, the “water absorption at RH=80% (in words)” value is “did not absorb water” and the “Material appearance after 24 hrs at RH = 80%” value is reported as “White flowable powder”. In addition, the “Weight gain during 24 hrs at RH = 80%,%” value in series [1] (RH = 80%) was 0.11%. Moreover, in series [1], the “hygroscopicity (in words)” value is on record as “non-hygroscopic”. The “weight gain in hygroscopicity test” value in series [1] (RH=80%) was found to be 0.11%. Also, in series [1] (RH=80%, about 24 hrs), the “appearance after exposure in a humidity chamber” value is “white flowable powder”. In series [2], the “delta pKa pKaLDEE − pKaacid (first value)” value was “˜2.4”.
Regarding `CCOC(=O)[C@@H](N)Cc1ccc(O)c(O)c1.O=C(O)[C@@H](O)c1ccccc1` [Example 16, LDEE S(+)Mandelate], in series [2] (first pKa of the acid), the “delta pKa pKaLDEE − pKaacid (first value)” value turned out to be 3.4.
As to `CCCCC(=O)O.CCOC(=O)[C@@H](N)Cc1ccc(O)c(O)c1` [Example 18, LDEE Valerate], the “delta pKa pKaLDEE − pKaacid (first value)” value in series [2] is recorded as “˜2.4”.
As for LDEE Palmitate [Example 20], the “delta pKa pKaLDEE − pKaacid (first value)” value in series [2] worked out at 2.4.
With `CCOC(=O)C(N)Cc1ccc(O)c(O)c1.O=C(O)C(O)c1ccccc1` (stereo not drawn) [R(−)Mandelate from chloroform, LDEE R(−)Mandelate], in series [1] (RH = 80%), the “Color stability at RH = 80%” value is over 24 h and the “Material appearance after 24 hrs at RH = 80%” value was “Semi-solid melt”.
Turning to Stearate, the “delta pKa pKaLDEE − pKaacid (first value)” value in series [2] is listed as “˜2.4”.
Same read-out and setting: the result for LDEE Oleate [Example 26] reads “˜2.4”.
Regarding `CCOC(=O)[C@@H](N)Cc1ccc(O)c(O)c1.O=C(O)CC(O)(CC(=O)O)C(=O)O` [Example 13, LDEE Citrate], in series [2], the “delta pKa pKaLDEE − pKaacid (first value)” value worked out at 4.11, the “delta pKa pKaLDEE − pKaacid (second value)” value is given as 4.28 and the “delta pKa pKaLDEE − pKaacid (third value)” value is listed as 0.84.

(Values after US6696600B2, “L-DOPA ethyl ester salts and uses thereof” (priority 2001, dated 2004).)
